± gives the expanded uncertainty stated by the source.
Assays:
[1] = refractive index (Na D-line) (dimensionless); details: 298.15 K; 101.33 kPa; Liquid; Standard Abbe refractometry
[2] = Liquid; for mass density: 298.15 K, 101.33 kPa

Row | Compound | refractive index [1] | mass density [2] [kg/m3] | vapor or sublimation pressure ([2]; 425.63 K) [kPa] | vapor or sublimation pressure ([2]; 369.75 K) [kPa] | vapor or sublimation pressure ([2]; 363.16 K) [kPa]
1 | CN(C)C=O [dimethylformamide] | 1.4265 ± 0.0008 | 948.72 ± 0.49 | 101.3 ± 0.8 |  | 
2 | CCCO [propan-1-ol] | 1.3836 ± 0.0008 | 799.62 ± 0.57 |  | 101.3 ± 0.8 | 
3 | CCCOCCC [dipropyl ether] | 1.3784 ± 0.0008 | 741.81 ± 0.65 |  |  | 101.3 ± 0.8

From the NIST ThermoML archive (doi:10.1021/je0604479)
